Source: PMC2994217 (British Journal of Cancer, 2010)
Where two headings read alike, the source gives them in different places.

Key:
[1] = no reference given, cited from earlier work
[2] = oral
Description: Patients were initially treated in cohorts of six per dose level. […] Both drugs were administered orally. […] (Figure 1) The duration of one cycle was 28 days.
Toxicity was evaluated according to the common toxicity criteria for adverse events (AEs) (CTCAEv3.0).

[3] = Pharmacokinetics of sirolimus in blood (LC/MS/MS, non-compartmental); assay type: in vivo, patients; settings: for Cmax / AUC(0-t) / half-life: human, whole blood; for half-life: read-out: t ½ (converted)
Text: (§1) A paired t-test on log-transformed values was used to calculate changes in AUC, Cmax and t1/2. A P-value ⩽0.05 was considered significant.

[4] = Pharmacokinetics of sorafenib in plasma (LC/MS/MS, non-compartmental); assay type: in vivo, patients; settings: for Cmax: human, plasma
Text: as §1

[5] = im, 1 mg, DL IM, sor 400 mg b.i.d., sir 1 mg q.d., cycle 1 day 1, single-dose sir, geometric mean (95% CI), n=3
[6] = im, DL IM, sor 400 mg b.i.d., sir 1 mg q.d., cycle 1 day 16, continuous dosing sor on single-dose sir, geometric mean (95% CI), n=3
[7] = oral, 1 mg, DL 0, sor 200 mg b.i.d., sir 1 mg q.d., cycle 1 day 1, single-dose sir, geometric mean (95% CI), n=6
[8] = oral, 2 mg, DL 1, Sor 200 mg b.i.d., sir 2 mg q.d., cycle 1 day 1, single-dose sir, geometric mean (95% CI), n=6
[9] = oral, DL 0, sor 200 mg b.i.d., sir 1 mg q.d., cycle 1 day 16, continuous dosing sor on single-dose sir, geometric mean (95% CI), n=6
[10] = oral, DL 1, Sor 200 mg b.i.d., sir 2 mg q.d., cycle 1 day 16, continuous dosing sor on single-dose sir, geometric mean (95% CI), n=6

In the case of `CO[C@H]1C[C@@H]2CC[C@@H](C)[C@@](O)(O2)C(=O)C(=O)N2CCCC[C@H]2C(=O)O[C@H]([C@H](C)C[C@@H]2CC[C@@H](O)[C@H](OC)C2)CC(=O)[C@H](C)/C=C(\C)[C@@H](O)[C@@H](OC)C(=O)[C@H](C)C[C@H](C)/C=C/C=C/C=C/1C` [sirolimus], the “time until mean steady-state concentrations are achieved” value [1] is given as 5 to 7 days, the terminal half-life ([1]; stable renal transplant recipients) is given as 62 ± 12 h and the “MTD of the combination, sirolimus dose” value ([2]; combined with sorafenib 200 mg b.i.d.) is given as 1 mg q.d. For the same compound, the “change in mean AUC(0−96 h) of sirolimus” value ([3]; DL 0, simultaneous administration of both drugs, P=0.955) was “no change”, the “average reduction of Cmax of sirolimus” value ([3]; DL 0, non-significant, P=0.515) was 18% and the “mean decrease of Cmax of sirolimus” value ([3]; DL 1, pre-treatment with 200 mg b.i.d. sorafenib, P=0.006) was 55%. The “change of mean terminal half-life of sirolimus” value ([3]; DL 1, pre-treatment with 200 mg b.i.d. sorafenib, P=0.66) was “remained unchanged”, the “decrease of AUC(0−96 h) of sirolimus” value ([3]; DL 1, pre-treatment with 200 mg b.i.d. sorafenib, non-significant, P=0.125) was 37% and the “average decrease of Cmax of sirolimus” value ([3]; DLim, P=0.027) was 55%. The “average decrease of AUC(0−96 h) of sirolimus” value ([3]; DLim, P=0.363) was 25%, the Cmax [3, 5] was 7.99 ng/mL and the AUC(0-t) ([3]; im, 1 mg, DL IM, sor 400 mg b.i.d., sir 1 mg q.d., cycle 1 day 1, single-dose sir, geometric mean (95% CI), n=3, read-out: AUC(0–96 h)) was 139 ng·h/mL. It also gave a half-life [3, 5] of 38.3 h, an AUC(0-t) ([3]; im, AUC(0–12 h), DL IM, sor 400 mg b.i.d., sir 1 mg q.d., cycle 2 day 1, continuous sor on continuous sir, geometric mean (95% CI), n=2) of 101 ng·h/mL and an AUC(0-t) ([3]; im, AUC(0–12 h), DL IM, sor 400 mg b.i.d., sir 1 mg q.d., cycle 2 day 15, continuous sor on continuous sir, n=2) of 113 ng·h/mL. The Cmax [3, 6] was 3.62 ng/mL, the AUC(0-t) ([3]; im, DL IM, sor 400 mg b.i.d., sir 1 mg q.d., cycle 1 day 16, continuous dosing sor on single-dose sir, geometric mean (95% CI), n=3, read-out: AUC(0–96 h)) was 104 ng·h/mL and the half-life [3, 6] was 32.9 h. It also gave a Cmax ([3]; im, DL IM, sor 400 mg b.i.d., sir 1 mg q.d., cycle 2 day 1, continuous sor on continuous sir, geometric mean (95% CI), n=2) of 11.2 ng/mL, a Cmax ([3]; im, DL IM, sor 400 mg b.i.d., sir 1 mg q.d., cycle 2 day 15, continuous sor on continuous sir, geometric mean (95% CI), n=2) of 13.7 ng/mL and a Cmax [3, 7] of 3.81 ng/mL. The AUC(0-t) ([3]; oral, 1 mg, DL 0, sor 200 mg b.i.d., sir 1 mg q.d., cycle 1 day 1, single-dose sir, geometric mean (95% CI), n=6, read-out: AUC(0–96 h)) was 91.1 ng·h/mL, the half-life [3, 7] was 45.5 h and the Cmax [3, 8] was 5.74 ng/mL. The AUC(0-t) ([3]; oral, 2 mg, DL 1, Sor 200 mg b.i.d., sir 2 mg q.d., cycle 1 day 1, single-dose sir, geometric mean (95% CI), n=6, read-out: AUC(0–96 h)) was 124 ng·h/mL, the half-life [3, 8] was 50.5 h and the AUC(0-t) ([3]; oral, AUC(0–12 h), DL 0, sor 200 mg b.i.d., sir 1 mg q.d., cycle 2 day 1, continuous sor on continuous sir, geometric mean (95% CI), n=6) was 59.4 ng·h/mL. For the same compound, the AUC(0-t) ([3]; oral, AUC(0–12 h), DL 0, sor 200 mg b.i.d., sir 1 mg q.d., cycle 2 day 15, continuous sor on continuous sir, geometric mean (95% CI), n=6) was 57.8 ng·h/mL, the AUC(0-t) ([3]; oral, AUC(0–12 h), DL 1, Sor 200 mg b.i.d., sir 2 mg q.d., cycle 2 day 1, continuous sor on continuous sir, geometric mean (95% CI), n=4) was 88.2 ng·h/mL and the AUC(0-t) ([3]; oral, AUC(0–12 h), DL 1, Sor 200 mg b.i.d., sir 2 mg q.d., cycle 2 day 15, continuous sor on continuous sir, n=1) was 84.6 ng·h/mL. For the same compound, the Cmax [3, 9] was 3.14 ng/mL, the AUC(0-t) ([3]; oral, DL 0, sor 200 mg b.i.d., sir 1 mg q.d., cycle 1 day 16, continuous dosing sor on single-dose sir, geometric mean (95% CI), n=6, read-out: AUC(0–96 h)) was 91.7 ng·h/mL and the half-life [3, 9] was 56.2 h. The Cmax ([3]; oral, DL 0, sor 200 mg b.i.d., sir 1 mg q.d., cycle 2 day 1, continuous sor on continuous sir, geometric mean (95% CI), n=6) was 6.3 ng/mL, the Cmax ([3]; oral, DL 0, sor 200 mg b.i.d., sir 1 mg q.d., cycle 2 day 15, continuous sor on continuous sir, geometric mean (95% CI), n=6) was 6.36 ng/mL and the Cmax [3, 10] was 2.6 ng/mL. It also gave an AUC(0-t) ([3]; oral, DL 1, Sor 200 mg b.i.d., sir 2 mg q.d., cycle 1 day 16, continuous dosing sor on single-dose sir, geometric mean (95% CI), n=6, read-out: AUC(0–96 h)) of 78.2 ng·h/mL, a half-life [3, 10] of 52.5 h and a Cmax ([3]; oral, DL 1, Sor 200 mg b.i.d., sir 2 mg q.d., cycle 2 day 1, continuous sor on continuous sir, geometric mean (95% CI), n=5) of 10 ng/mL. The Cmax ([3]; oral, DL 1, Sor 200 mg b.i.d., sir 2 mg q.d., cycle 2 day 15, continuous sor on continuous sir, n=2) was 17.6 ng/mL and the “effect of sorafenib on AUC(0−96) and Cmax of sirolimus” value ([3]; overall statement of abstract) was “reduced”.

For `CNC(=O)c1cc(Oc2ccc(NC(=O)Nc3ccc(Cl)c(C(F)(F)F)c3)cc2)ccn1` [sorafenib], the “AUC(0–12 h)” value ([4]; DL 1, Sor 200 mg b.i.d., sir 2 mg q.d, cycle 2 day 1, continuous sir on continuous sor, geometric mean (95% CI), n=4) was 39.3 (21–74) (n=4) mg h l^−1, the “mean decrease in AUC(0−12 h) of sorafenib” value ([4]; DLim, 1 mg sirolimus with 400 mg b.i.d. sorafenib, non-significant, P=0.14) was 15% and the “mean decrease in Cmax of sorafenib” value ([4]; DLim, 1 mg sirolimus with 400 mg b.i.d. sorafenib, non-significant, P=0.57) was 8%. For the same compound, the Cmax ([4]; im, 400 mg b.i.d., DL IM, Sor 400 mg b.i.d., sir 1 mg q.d., cycle 1 day 15, continuous dosing sor, geometric mean (95% CI), n=4) was 13000 ng/mL, the Cmax ([4]; im, DL IM, Sor 400 mg b.i.d., sir 1 mg q.d., cycle 1 day 16, single-dose sir on continuous dosing sor, geometric mean (95% CI), n=4) was 11900 ng/mL and the Cmax ([4]; im, DL IM, Sor 400 mg b.i.d., sir 1 mg q.d., cycle 2 day 1, continuous sir on continuous sor, geometric mean (95% CI), n=4) was 6640 ng/mL. The Cmax ([4]; im, DL IM, Sor 400 mg b.i.d., sir 1 mg q.d., cycle 2 day 15, continuous sir on continuous sor, geometric mean (95% CI), n=2) was 5550 ng/mL, the Cmax ([4]; oral, 200 mg b.i.d., DL 0, Sor 200 mg b.i.d., sir 1 mg q.d., cycle 1 day 15, continuous dosing sor, geometric mean (95% CI), n=6) was 7590 ng/mL and the Cmax ([4]; oral, DL 0, Sor 200 mg b.i.d., sir 1 mg q.d., cycle 2 day 1, continuous sir on continuous sor, geometric mean (95% CI), n=6) was 7120 ng/mL. For the same compound, the Cmax ([4]; oral, DL 0, Sor 200 mg b.i.d., sir 1 mg q.d., cycle 2 day 15, continuous sir on continuous sor, geometric mean (95% CI), n=6) was 7320 ng/mL, the Cmax ([4]; oral, DL 1, Sor 200 mg b.i.d., sir 2 mg q.d, cycle 2 day 1, continuous sir on continuous sor, geometric mean (95% CI), n=4) was 5150 ng/mL and the “effect of sirolimus on the PK of sorafenib” value ([4]; overall statement of abstract) was “did not change”. The “influence of sirolimus on AUC(0−12 h) of sorafenib” value ([4]; single oral doses of 1 mg or 2 mg sirolimus, sorafenib 200 mg b.i.d. multiple dosing, P=0.67) was “did not influence”, the “influence of sirolimus on Cmax of sorafenib” value ([4]; single oral doses of 1 mg or 2 mg sirolimus, sorafenib 200 mg b.i.d. multiple dosing, P=0.96) was “did not influence” and the elimination half-life [1] was 25 to 48 h. The “MTD of the combination, sorafenib dose” value ([2]; combined with sirolimus 1 mg q.d.) was 200 mg b.i.d.
